# According to US11702429B2, “mTORC modulators and uses thereof” (Aeovian Pharmaceuticals, Inc., priority 2019, dated 2023):
# Where two headings read alike, the source gives them in different places.
# Tests used:
# [1] = target: T1, mTORC2 (Homo sapiens, UniProt P42345+P62942); assay: Inhibition assay for mTORC2: phosphorylation of pAkt at Ser473, AlphaLISA in PC3 cells; assay type: cell-based; settings: for IC50: read-out: pIC50 mTORC2 (converted)
# T1 construct: endogenous in cells; host or cells: PC3 cells (human prostate adenocarcinoma)
# T1 sequence (P62942 2-108 limits assumed, other chains not shown): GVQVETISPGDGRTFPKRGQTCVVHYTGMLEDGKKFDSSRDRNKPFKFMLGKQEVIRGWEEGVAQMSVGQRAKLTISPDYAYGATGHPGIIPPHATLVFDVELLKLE
# Experimental: (§1) The IC50s of the inhibition of mTORC1 and mTORC2 were determined in vitro by determining the phosphorylation of pS6K at position Thr389 (mTORC1 inhibition) and pAkt at Ser473 (mTORC2 inhibition). In vitro studies were performed with AlphaLISA® technology using PC3 cells (Prostate Adenocarcinoma; Human (Homo sapiens)). The cells were seeded in 96 well plates and were treated for 24 hours with the different compounds. […] All analysis were performed using GraphPad Prism 7.0 (GraphPad Software, San Diego, USA).
# [2] = target: T2, mTORC1 (Homo sapiens, UniProt P42345+P62942); assay: Inhibition assay for mTORC1: phosphorylation of pS6K at Thr389, AlphaLISA in PC3 cells; assay type: cell-based; settings: for IC50: read-out: pIC50 mTORC1 (converted)
# T2 construct: endogenous in cells; host or cells: PC3 cells (human prostate adenocarcinoma)
# Experimental: as §1
# [3] = PC3 cells, treated 24 hours, pAkt Ser473, AlphaLISA, C16 diastereomer mixtures not separated
# [4] = PC3 cells, treated 24 hours, pS6K Thr389, AlphaLISA, C16 diastereomer mixtures not separated
IC50 [1],IC50 [2],Structure (SMILES),further results
< 1000 nM,< 0.316 nM,COC1C[C@@H]2CC[C@@H](C)[C@@](O)(O2)C(=O)C(=O)N2CCCCC2C(=O)O[C@H]([C@H](C)C[C@@H]2CC[C@@H](OC(=O)NCc3ccccc3)[C@H](OC)C2)CC(=O)[C@H](C)/C=C(\C)[C@@H](O)[C@@H](OC)C(=O)[C@H](C)C[C@H](C)/C=C/C=C/C=C/1C (some centres unmarked) [Compound 355],–
< 1000 nM,< 0.316 nM,CO[C@@H]1C[C@H](C[C@@H](C)[C@@H]2CC(=O)[C@H](C)/C=C(\C)[C@@H](O)[C@@H](OC)C(=O)[C@H](C)C[C@H](C)/C=C/C=C/C=C(\C)C(OC3CC3)C[C@@H]3CC[C@@H](C)[C@@](O)(O3)C(=O)C(=O)N3CCCCC3C(=O)O2)CC[C@H]1O (some centres unmarked) [Compound 209],–
< 1000 nM,< 0.316 nM,COC1C[C@@H]2CC[C@@H](C)[C@@](O)(O2)C(=O)C(=O)N2CCCCC2C(=O)O[C@H]([C@H](C)C[C@@H]2CC[C@@H](OC(=O)NCc3ccccn3)[C@H](OC)C2)CC(=O)[C@H](C)/C=C(\C)[C@@H](O)[C@@H](OC)C(=O)[C@H](C)C[C@H](C)/C=C/C=C/C=C/1C (some centres unmarked) [Compound 333],–
1000 to 10000 nM,0.316 to 3.16 nM,CO[C@@H]1C[C@H](C[C@@H](C)[C@@H]2CC(=O)[C@H](C)/C=C(\C)[C@@H](O)[C@@H](OC)C(=O)[C@H](C)C[C@H](C)/C=C/C=C/C=C(\C)C(OCCC3CCOCC3)C[C@@H]3CC[C@@H](C)[C@@](O)(O3)C(=O)C(=O)N3CCCCC3C(=O)O2)CC[C@H]1O (some centres unmarked) [Compound 213],–
> 10000 nM,< 0.316 nM,COCCOCCOC1C[C@@H]2CC[C@@H](C)[C@@](O)(O2)C(=O)C(=O)N2CCCCC2C(=O)O[C@H]([C@H](C)C[C@@H]2CC[C@@H](O)[C@H](OC)C2)CC(=O)[C@H](C)/C=C(\C)[C@@H](O)[C@@H](OC)C(=O)[C@H](C)C[C@H](C)/C=C/C=C/C=C/1C (some centres unmarked) [Compound 227],–
1000 to 10000 nM,> 3.16 nM,CO[C@@H]1C[C@H](C[C@@H](C)[C@@H]2CC(=O)[C@H](C)/C=C(\C)[C@@H](O)[C@@H](OC)C(=O)[C@H](C)C[C@H](C)/C=C/C=C/C=C(\C)C(c3ccc(C)s3)C[C@@H]3CC[C@@H](C)[C@@](O)(O3)C(=O)C(=O)N3CCCCC3C(=O)O2)CC[C@H]1O (some centres unmarked) [Compound 202],–
1000 to 10000 nM,> 3.16 nM,CO[C@@H]1C[C@H](C[C@@H](C)[C@@H]2CC(=O)[C@H](C)/C=C(\C)[C@@H](O)[C@@H](OC)C(=O)[C@H](C)C[C@H](C)/C=C/C=C/C=C(\C)C(c3cc(C)cs3)C[C@@H]3CC[C@@H](C)[C@@](O)(O3)C(=O)C(=O)N3CCCCC3C(=O)O2)CC[C@H]1O (some centres unmarked) [Compound 203],–

# The next lines start with the compound.
Structure (SMILES),IC50 [1],IC50 [2],further results
COCCOC1C[C@@H]2CC[C@@H](C)[C@@](O)(O2)C(=O)C(=O)N2CCCCC2C(=O)O[C@H]([C@H](C)C[C@@H]2CC[C@@H](O)[C@H](OC)C2)CC(=O)[C@H](C)/C=C(\C)[C@@H](O)[C@@H](OC)C(=O)[C@H](C)C[C@H](C)/C=C/C=C/C=C/1C (some centres unmarked) [Compound 220],1000 to 10000 nM,< 0.316 nM,–
CO[C@@H]1C[C@H](C[C@@H](C)[C@@H]2CC(=O)[C@H](C)/C=C(\C)[C@@H](O)[C@@H](OC)C(=O)[C@H](C)C[C@H](C)/C=C/C=C/C=C(\C)C(OC[C@H](O)c3ccccc3)C[C@@H]3CC[C@@H](C)[C@@](O)(O3)C(=O)C(=O)N3CCCCC3C(=O)O2)CC[C@H]1O (some centres unmarked) [Compound 214],1000 to 10000 nM,< 0.316 nM,–
COCCOC1C[C@@H]2CC[C@@H](C)[C@@](O)(O2)C(=O)C(=O)N2CCCC[C@H]2C(=O)O[C@H]([C@H](C)C[C@@H]2CC[C@@H](OCCN3CC4(COC4)C3)[C@H](OC)C2)CC(=O)[C@H](C)/C=C(\C)[C@@H](O)[C@@H](OC)C(=O)[C@H](C)C[C@H](C)/C=C/C=C/C=C/1C (mixture of isomers) [Compound 44],–,–,"IC50 [1, 3]: 1000 to 10000 nM; IC50 [2, 4]: < 0.316 nM"
COC1C[C@@H]2CC[C@@H](C)[C@@](O)(O2)C(=O)C(=O)N2CCCCC2C(=O)O[C@H]([C@H](C)C[C@@H]2CC[C@@H](OC(=O)NCCO)[C@H](OC)C2)CC(=O)[C@H](C)/C=C(\C)[C@@H](O)[C@@H](OC)C(=O)[C@H](C)C[C@H](C)/C=C/C=C/C=C/1C (some centres unmarked) [Compound 362],< 1000 nM,< 0.316 nM,–
COC1C[C@@H]2CC[C@@H](C)[C@@](O)(O2)C(=O)C(=O)N2CCCCC2C(=O)O[C@H]([C@H](C)C[C@@H]2CC[C@@H](OP(C)(C)=O)[C@H](OC)C2)CC(=O)[C@H](C)/C=C(\C)[C@@H](O)[C@@H](OC)C(=O)[C@H](C)C[C@H](C)/C=C/C=C/C=C/1C (some centres unmarked) [Compound 342],< 1000 nM,< 0.316 nM,–
COC1C[C@@H]2CC[C@@H](C)[C@@](O)(O2)C(=O)C(=O)N2CCCCC2C(=O)O[C@H]([C@H](C)C[C@@H]2CC[C@@H](OCCCN3CCC(O)CC3)[C@H](OC)C2)CC(=O)[C@H](C)/C=C(\C)[C@@H](O)[C@@H](OC)C(=O)[C@H](C)C[C@H](C)/C=C/C=C/C=C/1C (some centres unmarked) [Compound 368],< 1000 nM,< 0.316 nM,–
COCCOC1CC2CCC(C)C(O)(O2)C(=O)C(=O)N2CCCCC2C(=O)OC(C(C)CC2CCC(OCCCN3CCOCC3C)C(OC)C2)CC(=O)C(C)C=C(C)C(O)C(OC)C(=O)C(C)CC(C)C=CC=CC=C1C (mixture of isomers) [Compound 42],–,–,"IC50 [1, 3]: 1000 to 10000 nM; IC50 [2, 4]: < 0.316 nM"
COCCOC1CC2CCC(C)C(O)(O2)C(=O)C(=O)N2CCCCC2C(=O)OC(C(C)CC2CCC(OCC(O)CO)C(OC)C2)CC(=O)C(C)C=C(C)C(O)C(OC)C(=O)C(C)CC(C)C=CC=CC=C1C (centres unmarked) [Compound 45],–,–,"pIC50 mTORC2 [1, 3]: B (5 to 6 as B); pIC50 mTORC1 [2, 4]: A (pIC50 for mTORC1 of >9.5 as A)"
COC1C[C@@H]2CC[C@@H](C)[C@@](O)(O2)C(=O)C(=O)N2CCCCC2C(=O)O[C@H]([C@H](C)C[C@@H]2CC[C@@H](OC(=O)NCCCN3CCCCC3)[C@H](OC)C2)CC(=O)[C@H](C)/C=C(\C)[C@@H](O)[C@@H](OC)C(=O)[C@H](C)C[C@H](C)/C=C/C=C/C=C/1C (some centres unmarked) [Compound 366],1000 to 10000 nM,> 3.16 nM,–
"COC1C[C@@H]2CC[C@@H](C)[C@@](O)(O2)C(=O)C(=O)N2CCCCC2C(=O)O[C@H]([C@H](C)C[C@@H]2CC[C@@H](OC(=O)N(CCO)CCO)[C@H](OC)C2)CC(=O)[C@H](C)/C=C(\C)[C@@H](O)[C@@H](OC)C(=O)[C@H](C)C[C@H](C)/C=C/C=C/C=C/1C (stereo partly drawn) [Compound 357, [(1R,2R,4S)-4-[(2R)-2-[(1R,9S,12S,15R,16E,18R,19R,21R,23S,24E,26E,28E,30S,32S,35R)-1,18-dihydroxy-19,30-dimethoxy-15,17,21,23,29,35-hexamethyl-2,3,10,14,20-pentaoxo-11,36-dioxa-4-azatricyclo[30.3.1.0^4,9]hexatriaconta-16,24,26,28-tetraen-12-yl]propyl]-2-methoxy-cyclohexyl] N,N-bis(2-hydroxyethyl)carbamate]",< 1000 nM,< 0.316 nM,–
COC1C[C@@H]2CC[C@@H](C)[C@@](O)(O2)C(=O)C(=O)N2CCCCC2C(=O)O[C@H]([C@H](C)C[C@@H]2CC[C@@H](OC(=O)N(C)CCCN(C)C)[C@H](OC)C2)CC(=O)[C@H](C)/C=C(\C)[C@@H](O)[C@@H](OC)C(=O)[C@H](C)C[C@H](C)/C=C/C=C/C=C/1C (some centres unmarked) [Compound 321],< 1000 nM,< 0.316 nM,–
CO[C@@H]1C[C@H](C[C@@H](C)[C@@H]2CC(=O)[C@H](C)/C=C(\C)[C@@H](O)[C@@H](OC)C(=O)[C@H](C)C[C@H](C)/C=C/C=C/C=C(\C)C(OCCO)C[C@@H]3CC[C@@H](C)[C@@](O)(O3)C(=O)C(=O)N3CCCC[C@H]3C(=O)O2)CC[C@H]1OCCCN1CCN(C)CC1 (mixture of isomers) [Compound 34],–,–,"IC50 [1, 3]: > 10000 nM; IC50 [2, 4]: 0.316 to 3.16 nM"
CO[C@@H]1C[C@H](C[C@@H](C)[C@@H]2CC(=O)[C@H](C)/C=C(\C)[C@@H](O)[C@@H](OC)C(=O)[C@H](C)C[C@H](C)/C=C/C=C/C=C(\C)C(OCC3CCOCC3)C[C@@H]3CC[C@@H](C)[C@@](O)(O3)C(=O)C(=O)N3CCCCC3C(=O)O2)CC[C@H]1O (some centres unmarked) [Compound 226],> 10000 nM,0.316 to 3.16 nM,–
CO[C@@H]1C[C@H](C[C@@H](C)[C@@H]2CC(=O)[C@H](C)/C=C(\C)[C@@H](O)[C@@H](OC)C(=O)[C@H](C)C[C@H](C)/C=C/C=C/C=C(\C)C(OCCO)C[C@@H]3CC[C@@H](C)[C@@](O)(O3)C(=O)C(=O)N3CCCCC3C(=O)O2)CC[C@H]1OCCCN1CCO[C@H](C)C1 (some centres unmarked) [Compound 43],–,–,"pIC50 mTORC2 [1, 3]: B (5 to 6 as B); pIC50 mTORC1 [2, 4]: A (pIC50 for mTORC1 of >9.5 as A)"
COCCOC1C[C@@H]2CC[C@@H](C)[C@@](O)(O2)C(=O)C(=O)N2CCCC[C@H]2C(=O)O[C@H]([C@H](C)C[C@@H]2CC[C@@H](OCCCN3CCC(C(C)(C)O)CC3)[C@H](OC)C2)CC(=O)[C@H](C)/C=C(\C)[C@@H](O)[C@@H](OC)C(=O)[C@H](C)C[C@H](C)/C=C/C=C/C=C/1C (mixture of isomers) [Compound 74],–,–,"IC50 [1, 3]: 1000 to 10000 nM; IC50 [2, 4]: < 0.316 nM"
CO[C@@H]1C[C@H](C[C@@H](C)[C@@H]2CC(=O)[C@H](C)/C=C(\C)[C@@H](O)[C@@H](OC)C(=O)[C@H](C)C[C@H](C)/C=C/C=C/C=C(\C)C(OCCc3ccccc3)C[C@@H]3CC[C@@H](C)[C@@](O)(O3)C(=O)C(=O)N3CCCCC3C(=O)O2)CC[C@H]1O (some centres unmarked) [Compound 211],< 1000 nM,< 0.316 nM,–
CO[C@@H]1C[C@H](C[C@@H](C)[C@@H]2CC(=O)[C@H](C)/C=C(\C)[C@@H](O)[C@@H](OC)C(=O)[C@H](C)C[C@H](C)/C=C/C=C/C=C(\C)C(OCCO)C[C@@H]3CC[C@@H](C)[C@@](O)(O3)C(=O)C(=O)N3CCCC[C@H]3C(=O)O2)CC[C@H]1OCCCN1CCO[C@H](C)C1 (mixture of isomers) [Compound 13],–,–,"IC50 [2, 4]: < 0.316 nM"
